# Measurements reported in patent publication US7714146B2, “Azulene-oxindole compounds as multiple-kinase inhibitors and useful as anticancer agents” (Industrial Technology Research Institute, priority 2006, dated 2010).
# Key:
# Format in all cases: biochemical
# [1] = target: T1, human FLT-3 (Arg571-Ser993) (Homo sapiens, UniProt P36888); assay: FLT-3 kinase assay (HTScan kit, DELFIA); conditions: for inhibition at 1 µM: compound at 1 μM, read-out: FLT-3 1 μM, % of inhibition relative to control; for inhibition at 0.1 µM: compound at 0.1 μM, read-out: FLT-3 0.1 μM, % of inhibition relative to control
# T1 construct: human FLT-3 (Arg571-Ser993); GST (N); purchased Cell Signaling Technology; host or cells: baculovirus expression system
# T1 sequence (P36888 571-993): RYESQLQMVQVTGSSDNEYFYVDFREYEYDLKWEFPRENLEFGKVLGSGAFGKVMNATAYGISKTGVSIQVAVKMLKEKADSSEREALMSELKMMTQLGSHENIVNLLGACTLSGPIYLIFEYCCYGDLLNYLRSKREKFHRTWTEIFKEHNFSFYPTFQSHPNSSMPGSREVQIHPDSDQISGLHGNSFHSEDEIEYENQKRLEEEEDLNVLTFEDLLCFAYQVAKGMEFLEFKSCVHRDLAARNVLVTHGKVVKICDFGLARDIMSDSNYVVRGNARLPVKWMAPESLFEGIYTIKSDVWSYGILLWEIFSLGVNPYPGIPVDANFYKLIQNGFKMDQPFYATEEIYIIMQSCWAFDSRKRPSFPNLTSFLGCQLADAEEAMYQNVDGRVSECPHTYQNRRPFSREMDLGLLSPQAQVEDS
# Protocol: (§1) Compounds 1-100 were treated for their efficacy in inhibiting activities of FLT-3, c-KIT, KDR/Flk-1, PDGFR-beta, EGFR, and PKC kinases by biochemical DELFIA (Dissociation Enhanced Lanthanide FIA) assays according to the procedure described below. The assays were conducted by, Division of Cell Engineering, Biomedical Engineering Research Laboratories, Industrial Technology Research Institute, Bldg. 53, 195, sec. 4, Chung Hsing Rd. Chutung, Hsinchu, Taiwan 310, R.O.C.
# (§2) The FLT-3 assay was conducted following the protocol described in Protocol for HTScan® FLT-3 Kinase Assay Kit (Cell Signaling Technology®). The assay was conducted under the following conditions: FLT-3 source: The GST-kinase fusion protein was produced using a baculovirus expression system with a construct expressing human FLT-3 (Arg571-Ser993) (GenBank accession No. NM_004119) with an amino-terminal GST tag, substrate: 1.5 μM Gastrin Precursor Biotinylated Peptide (with Tyr87 as phosphorylation site), vehicle: 1% DMSO, pre-incubation time/temperature: 5 minutes at room temperature, incubation time/temperature: 30 minutes at room temperature, incubation buffer: 60 mM HEPES pH 7.5, 5 mM MgCl2, 5 mM MnCl2, 3 μM Na3VO4, 1.25 mM DTT, 20 μM ATP, and quantitative method: DELFIA® Assay.
# [2] = target: T2, human EGFR (His672-Ala1210) (Homo sapiens, UniProt P00533); assay: EGFR kinase assay (HTScan kit, DELFIA); conditions: compound at 0.1 μM; read-out: EGFR 0.1 μM, % of inhibition relative to control
# T2 construct: human EGFR (His672-Ala1210); GST (N); purchased Cell Signaling Technology; host or cells: baculovirus expression system
# Protocol: as §1
# as §2, with “EGFR” for “FLT-3”, “EGFR (His672-Ala1210)” for “FLT-3 (Arg571-Ser993)”, “Accession” for “accession”, “NM_005228)” for “NM_004119)”, “This biotinylated peptide contains the residues surrounding Tyr-66 of PTP1B,” for “Gastrin Precursor Biotinylated Peptide (with Tyr87 as phosphorylation site),”
# [3] = target: T3, human c-KIT (Thr544-Val976) (Homo sapiens, UniProt P10721); assay: c-KIT kinase assay (HTScan kit, DELFIA); conditions: for inhibition at 0.1 µM: compound at 0.1 μM, read-out: c-KIT 0.1 μM, % of inhibition relative to control; for inhibition at 1 µM: compound at 1 μM, read-out: c-KIT 1 μM, % of inhibition relative to control
# T3 construct: human c-KIT (Thr544-Val976); GST (N); purchased Cell Signaling Technology; host or cells: baculovirus expression system
# Protocol: as §1
# as §2, with “c-KIT” for “FLT-3”, “GST-c-KIT” for “GST-kinase”, “c-KIT (Thr544-Val976)” for “FLT-3 (Arg571-Ser993) (GenBank accession No. NM_004119)”, “This biotinylated peptide contains the residues surrounding Tyr-996 of KDR,” for “Gastrin Precursor Biotinylated Peptide (with Tyr87 as phosphorylation site),”
# [4] = target: T4, human VEGFR-2 (Val789-Val1356) (Homo sapiens, UniProt P35968); assay: KDR kinase assay (HTScan VEGFR-2 kit, DELFIA); conditions: for inhibition at 0.1 µM: compound at 0.1 μM, read-out: KDR 0.1 μM, % of inhibition relative to control; for inhibition at 1 µM: compound at 1 μM, read-out: KDR 1 μM, % of inhibition relative to control
# T4 construct: human VEGFR-2 (Val789-Val1356); GST (N); purchased Cell Signaling Technology; host or cells: baculovirus expression system
# Protocol: as §1
# The KDR assay was conducted following the protocol described in Protocol for HTScan® VEGFR-2 Kinase Assay Kit (Cell Signaling Technology®). The assay was conducted under the following conditions: KDR source: The GST-Kinase fusion protein was produced using a baculovirus expression system with a construct expressing human VEGFR-2 (Val789-Val1356) (GenBank Accession No. NM_002253) with an amino-terminal GST tag, substrate: 1.5 μM Gastrin Precursor Biotinylated Peptide (with Tyr87 as phosphorylation site), vehicle: 1% DMSO, pre-incubation time/temperature: 5 minutes at room temperature, incubation time/temperature: 30 minutes at room temperature, incubation buffer: 60 mM HEPES pH 7.5, 5 mM MgCl2, 5 mM MnCl2, 3 μM Na3VO4, 1.25 mM DTT, 20 μM ATP, and quantitative method: DELFIA® Assay.
# T3 sequence (P10721 544-976): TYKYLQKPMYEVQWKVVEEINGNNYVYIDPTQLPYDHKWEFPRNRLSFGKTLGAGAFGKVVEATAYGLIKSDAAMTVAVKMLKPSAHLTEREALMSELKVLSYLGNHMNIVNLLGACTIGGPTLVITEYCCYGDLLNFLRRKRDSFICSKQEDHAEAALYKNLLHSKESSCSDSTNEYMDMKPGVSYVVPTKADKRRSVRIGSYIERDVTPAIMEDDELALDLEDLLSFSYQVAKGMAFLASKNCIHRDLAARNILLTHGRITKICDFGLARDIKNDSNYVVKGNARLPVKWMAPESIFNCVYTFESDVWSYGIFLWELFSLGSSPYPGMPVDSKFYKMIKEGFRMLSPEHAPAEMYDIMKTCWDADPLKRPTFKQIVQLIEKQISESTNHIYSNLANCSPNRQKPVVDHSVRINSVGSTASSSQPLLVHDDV
# T4 sequence (P35968 789-1356): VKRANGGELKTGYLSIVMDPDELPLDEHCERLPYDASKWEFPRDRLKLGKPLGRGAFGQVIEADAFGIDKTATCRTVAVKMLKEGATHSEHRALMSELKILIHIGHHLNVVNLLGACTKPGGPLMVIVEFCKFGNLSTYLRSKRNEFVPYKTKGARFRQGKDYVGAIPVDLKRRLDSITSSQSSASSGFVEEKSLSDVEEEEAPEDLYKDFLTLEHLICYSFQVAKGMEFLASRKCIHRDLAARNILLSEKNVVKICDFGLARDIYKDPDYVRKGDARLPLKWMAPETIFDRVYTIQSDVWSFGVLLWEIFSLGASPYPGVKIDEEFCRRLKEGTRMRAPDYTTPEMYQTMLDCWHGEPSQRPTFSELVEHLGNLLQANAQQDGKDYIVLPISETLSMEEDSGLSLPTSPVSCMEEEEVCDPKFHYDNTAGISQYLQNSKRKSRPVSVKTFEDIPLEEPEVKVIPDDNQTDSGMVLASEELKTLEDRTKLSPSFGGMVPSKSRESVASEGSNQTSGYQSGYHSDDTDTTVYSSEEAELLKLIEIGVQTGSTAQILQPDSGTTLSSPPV
# T2 sequence (P00533 672-1210): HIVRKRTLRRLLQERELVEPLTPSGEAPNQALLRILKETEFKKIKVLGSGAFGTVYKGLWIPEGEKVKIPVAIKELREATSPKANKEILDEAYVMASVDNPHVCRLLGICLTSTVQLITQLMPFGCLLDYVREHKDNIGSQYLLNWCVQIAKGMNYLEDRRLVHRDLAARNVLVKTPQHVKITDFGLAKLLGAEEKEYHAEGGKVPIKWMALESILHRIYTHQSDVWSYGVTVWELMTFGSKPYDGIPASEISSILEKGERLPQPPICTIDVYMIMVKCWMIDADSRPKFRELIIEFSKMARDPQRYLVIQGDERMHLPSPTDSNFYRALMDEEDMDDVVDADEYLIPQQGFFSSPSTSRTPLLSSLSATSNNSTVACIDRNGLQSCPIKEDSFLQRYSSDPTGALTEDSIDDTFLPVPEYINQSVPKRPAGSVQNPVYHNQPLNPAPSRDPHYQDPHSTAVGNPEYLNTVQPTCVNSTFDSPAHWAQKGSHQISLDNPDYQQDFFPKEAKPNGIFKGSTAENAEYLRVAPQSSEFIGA
Compound,inhibition at 1 µM [1],inhibition at 0.1 µM [2],inhibition at 0.1 µM [3],inhibition at 1 µM [3],inhibition at 0.1 µM [1],inhibition at 0.1 µM [4],inhibition at 1 µM [4],IC50 ([3]; read-out: c-KIT kinase inhibition (IC50)),IC50 ([1]; read-out: FLT-3 kinase inhibition (IC50))
"COc1ccc2c(c1)NC(=O)/C2=C\c1ccc2cccccc1-2 [Compound 31, 3-Azulen-1-ylmethylene-6-methoxy-1,3-dihydro-indol-2-one]",14.9%,0.2%,,,,,,,
"O=C1Nc2ccc(F)cc2/C1=C\c1ccc2cccccc1-2 [Compound 25, 3-Azulen-1-ylmethylene-5-fluoro-1,3-dihydro-indol-2-one]",58.8%,,75%,75%,26.2%,7.7%,45.7%,,
"Cc1cc(C=C2C(=O)Nc3c(F)cccc32)c2ccccc(OCCCN(C)C)c1-2 [Compound 99, 3-[4-(3-Dimethylamino-propoxy)-3-methyl-azulen-1-ylmethylene]-7-fluoro-1,3-dihydro-indol-2-one]",59.4%,,34.4%,34.4%,7.3%,28.7%,73.9%,,
"Cc1ccc2c(c1)/C(=C\c1c3cccccc-3nc1N)C(=O)N2 [Compound 54, 3-(2-Amino-cyclohepta[b]pyrrol-3-ylmethylene)-5-methyl-1,3-dihydro-indol-2-one]",52.5%,,27.5%,27.5%,33.3%,17%,25.7%,,
"Cc1cc(C=C2C(=O)Nc3ccc(C(F)(F)F)cc32)c2ccccc(OCCCN(C)C)c1-2 [Compound 100, 3-[4-(3-Dimethylamino-propoxy)-3-methyl-azulen-1-ylmethylene]-5-trifluoromethyl-1,3-dihydro-indol-2-one]",89.1%,,48.1%,48.1%,64.9%,33.3%,73.2%,,
"CN(C)Cc1cc(/C=C2/C(=O)Nc3ccc(F)cc32)c2cccccc1-2 [Compound 65, 3-(3-Dimethylaminomethyl-azulen-1-ylmethylene)-5-fluoro-1,3-dihydro-indol-2-one]",30.9%,,51.3%,51.3%,23.3%,46.8%,46.9%,,
"CN(C)Cc1c(/C=C2/C(=O)Nc3ccc(F)cc32)cc2cccccc1-2 [Compound 59, 3-(1-Dimethylaminomethyl-azulen-2-ylmethylene)-5-fluoro-1,3-dihydro-indol-2-one]",49.8%,,24.2%,24.2%,43%,19.9%,28.5%,,
"O=C1Nc2ccc(F)cc2/C1=C\c1ccccc2cccc1-2 [Compound 52, 3-Azulen-4-ylmethylene-5-fluoro-1,3-dihydro-indol-2-one]",44.2%,,20.2%,20.2%,14.1%,12.6%,9.1%,,
"CCc1cc(C=C2C(=O)Nc3ccc(S(=O)(=O)NCCCN4CCN(C)CC4)cc32)c2cccccc1-2 [Compound 83, 3-(3-Ethyl-azulen-1-ylmethylene)-2-oxo-2,3-dihydro-1H-indole-5-sulfonic acid [3-(4-methyl-piperazin-1-yl)-propyl]-amide]",17.7%,,19.6%,19.6%,10.5%,20.8%,26.7%,,
"Cc1cc(C=C2C(=O)Nc3ccc(F)cc32)c2ccccc(OCCCN3CCOCC3)c1-2 (mixture of isomers) [Compound 87, 5-Fluoro-3-[3-methyl-4-(3-morpholin-4-yl-propoxy)-azulen-1-ylmethylene]-1,3-dihydro-indol-2-one]",85.7%,,71%,71%,56.9%,1.9%,11.5%,17.8 nM,4.8 nM
"O=C1Nc2ccc(F)cc2/C1=C\c1cc2cccccc-2c1F [Compound 56, 5-Fluoro-3-(1-fluoro-azulen-2-ylmethylene)-1,3-dihydro-indol-2-one]",53%,,34.8%,34.8%,12.6%,35.4%,34.2%,,
"CCOC(=O)N1CCC(Nc2ccc3c(c2)/C(=C\c2cc(C)c4c(OCCCN(C)C)ccccc2-4)C(=O)N3)CC1 [Compound 85, 4-{3-[4-(3-Dimethylamino-propoxy)-3-methyl-azulen-1-ylmethylene]-2-oxo-2,3-dihydro-1H-indol-5-ylamino}-piperidine-1-carboxylic acid ethyl ester]",2%,,2.4%,2.4%,,,4.4%,,
"CCc1cc(C=C2C(=O)Nc3ccc(F)cc32)c2cccccc1-2 [Compound 80, 3-(3-Ethyl-azulen-1-ylmethylene)-5-fluoro-1,3-dihydro-indol-2-one]",19.7%,,29.6%,29.6%,17.6%,30.2%,32%,,
"O=C1Nc2cc(Br)ccc2/C1=C/c1ccc2cccccc1-2 [Compound 29, 3-Azulen-1-ylmethylene-6-bromo-1,3-dihydro-indol-2-one]",53.3%,,46.1%,46.1%,,18.5%,48.2%,,
